In the NIST ThermoML archive (doi:10.1021/je0601457):

Assay: xn = mol fraction of the nth substance listed

Cc1cnccn1 [2-methylpyrazine] + O=C=O
Fluid (supercritical or subcritical phases), Linear displacement technique
Conditions	mass density [kg/m3]
329.15 K, 13140 kPa, x1 = 0.017	626
329.15 K, 14240 kPa, x1 = 0.017	652
331.05 K, 10450 kPa, x1 = 0.081	785
331.05 K, 10590 kPa, x1 = 0.081	785
331.65 K, 6380 kPa, x1 = 0.624	896
331.65 K, 9900 kPa, x1 = 0.624	901
331.65 K, 13480 kPa, x1 = 0.624	904
331.65 K, 18240 kPa, x1 = 0.624	910
332.35 K, 11210 kPa, x1 = 0.023	375
332.35 K, 12340 kPa, x1 = 0.023	438
332.35 K, 13280 kPa, x1 = 0.023	470
332.35 K, 15340 kPa, x1 = 0.023	519
332.35 K, 16620 kPa, x1 = 0.023	540
332.45 K, 12000 kPa, x1 = 0.122	863
332.45 K, 13550 kPa, x1 = 0.122	881
332.45 K, 15590 kPa, x1 = 0.122	901
333.55 K, 11790 kPa, x1 = 0.033	617
333.55 K, 12720 kPa, x1 = 0.033	679
333.55 K, 13340 kPa, x1 = 0.033	719
333.55 K, 15340 kPa, x1 = 0.033	780
335.65 K, 9480 kPa, x1 = 0.264	822
335.65 K, 10900 kPa, x1 = 0.264	829
335.65 K, 14380 kPa, x1 = 0.264	842
335.65 K, 17720 kPa, x1 = 0.264	852
336.95 K, 12340 kPa, x1 = 0.062	716
336.95 K, 13280 kPa, x1 = 0.062	743
336.95 K, 14520 kPa, x1 = 0.062	775
336.95 K, 16970 kPa, x1 = 0.062	820
337.05 K, 3620 kPa, x1 = 0.857	892
337.05 K, 5550 kPa, x1 = 0.857	893
337.05 K, 9000 kPa, x1 = 0.857	897
337.05 K, 13590 kPa, x1 = 0.857	901
338.55 K, 12240 kPa, x1 = 0.081	752
338.55 K, 13210 kPa, x1 = 0.081	765
338.55 K, 14930 kPa, x1 = 0.081	774
339.25 K, 10930 kPa, x1 = 0.156	847
339.25 K, 13760 kPa, x1 = 0.156	869
339.25 K, 17210 kPa, x1 = 0.156	884
340.45 K, 11280 kPa, x1 = 0.017	346
340.45 K, 11480 kPa, x1 = 0.017	371
340.45 K, 11970 kPa, x1 = 0.017	408
340.45 K, 12790 kPa, x1 = 0.017	455
341.55 K, 14410 kPa, x1 = 0.091	782
341.55 K, 15410 kPa, x1 = 0.091	801
341.55 K, 17340 kPa, x1 = 0.091	828
342.35 K, 11760 kPa, x1 = 0.023	283
342.35 K, 11970 kPa, x1 = 0.023	291
342.35 K, 12340 kPa, x1 = 0.023	300
344.65 K, 12480 kPa, x1 = 0.033	482
344.65 K, 13170 kPa, x1 = 0.033	529
344.65 K, 13860 kPa, x1 = 0.033	578
344.65 K, 14660 kPa, x1 = 0.033	620
344.65 K, 15310 kPa, x1 = 0.033	649
344.65 K, 16550 kPa, x1 = 0.033	683
344.95 K, 11340 kPa, x1 = 0.339	920
344.95 K, 18720 kPa, x1 = 0.339	941
345.05 K, 10790 kPa, x1 = 0.264	808
345.05 K, 12720 kPa, x1 = 0.264	818
345.05 K, 15280 kPa, x1 = 0.264	828
345.05 K, 19170 kPa, x1 = 0.264	842
346.15 K, 14380 kPa, x1 = 0.039	582
346.15 K, 15070 kPa, x1 = 0.039	617
348.65 K, 7590 kPa, x1 = 0.624	879
348.65 K, 11830 kPa, x1 = 0.624	884
348.65 K, 16240 kPa, x1 = 0.624	890
349.45 K, 14100 kPa, x1 = 0.122	787
349.45 K, 15520 kPa, x1 = 0.122	810
349.45 K, 16310 kPa, x1 = 0.122	824
349.45 K, 18790 kPa, x1 = 0.122	852
349.75 K, 14100 kPa, x1 = 0.062	691
349.75 K, 15100 kPa, x1 = 0.062	722
351.15 K, 13970 kPa, x1 = 0.081	778
351.15 K, 14720 kPa, x1 = 0.081	780
351.15 K, 16720 kPa, x1 = 0.081	783
351.35 K, 3760 kPa, x1 = 0.857	878
351.35 K, 7000 kPa, x1 = 0.857	882
351.35 K, 11210 kPa, x1 = 0.857	888
351.35 K, 17340 kPa, x1 = 0.857	893
352.75 K, 14140 kPa, x1 = 0.039	495
352.75 K, 14790 kPa, x1 = 0.039	525
352.75 K, 15410 kPa, x1 = 0.039	543
355.05 K, 11030 kPa, x1 = 0.339	918
355.05 K, 14660 kPa, x1 = 0.339	927
355.05 K, 17280 kPa, x1 = 0.339	939
355.15 K, 13690 kPa, x1 = 0.156	808
355.15 K, 14590 kPa, x1 = 0.156	821
355.15 K, 16930 kPa, x1 = 0.156	843
358.25 K, 15690 kPa, x1 = 0.091	696
358.25 K, 16450 kPa, x1 = 0.091	714
358.25 K, 17690 kPa, x1 = 0.091	743
358.25 K, 19210 kPa, x1 = 0.091	767
358.25 K, 20690 kPa, x1 = 0.091	787
365.65 K, 17000 kPa, x1 = 0.122	746
365.65 K, 18100 kPa, x1 = 0.122	769
365.65 K, 19170 kPa, x1 = 0.122	786
369.15 K, 15970 kPa, x1 = 0.091	633
369.15 K, 16660 kPa, x1 = 0.091	659
369.15 K, 17340 kPa, x1 = 0.091	681
369.15 K, 18100 kPa, x1 = 0.091	701
369.15 K, 19000 kPa, x1 = 0.091	721
371.75 K, 4380 kPa, x1 = 0.857	861
371.75 K, 8450 kPa, x1 = 0.857	865
371.75 K, 15830 kPa, x1 = 0.857	875
371.75 K, 28450 kPa, x1 = 0.857	889
374.25 K, 14030 kPa, x1 = 0.033	346
374.25 K, 14550 kPa, x1 = 0.033	367
374.25 K, 15000 kPa, x1 = 0.033	384
374.25 K, 16240 kPa, x1 = 0.033	425
374.55 K, 17210 kPa, x1 = 0.081	740
374.55 K, 19210 kPa, x1 = 0.081	768
374.75 K, 16100 kPa, x1 = 0.062	592
374.75 K, 16720 kPa, x1 = 0.062	626
374.75 K, 16970 kPa, x1 = 0.062	639
375.55 K, 16790 kPa, x1 = 0.156	765
375.55 K, 18100 kPa, x1 = 0.156	789
375.55 K, 19970 kPa, x1 = 0.156	811
375.75 K, 17000 kPa, x1 = 0.264	758
375.75 K, 20720 kPa, x1 = 0.264	778
375.75 K, 24590 kPa, x1 = 0.264	797
376.35 K, 14860 kPa, x1 = 0.039	367
376.35 K, 15760 kPa, x1 = 0.039	406
376.65 K, 7970 kPa, x1 = 0.624	846
376.65 K, 10970 kPa, x1 = 0.624	852
376.65 K, 14930 kPa, x1 = 0.624	859
376.65 K, 19340 kPa, x1 = 0.624	864
379.45 K, 17410 kPa, x1 = 0.091	598
379.45 K, 20340 kPa, x1 = 0.091	675
379.45 K, 21900 kPa, x1 = 0.091	705
379.45 K, 24210 kPa, x1 = 0.091	731
387.35 K, 15480 kPa, x1 = 0.339	899
387.35 K, 18070 kPa, x1 = 0.339	912
387.35 K, 22790 kPa, x1 = 0.339	933

Liquid, linear displacement
Conditions	mass density [kg/m3]
331.05 K, x1 = 0.081	785
331.65 K, x1 = 0.624	892
332.35 K, x1 = 0.023	323
332.45 K, x1 = 0.122	840
333.55 K, x1 = 0.033	574
335.65 K, x1 = 0.264	822
336.95 K, x1 = 0.062	689
337.05 K, x1 = 0.857	888
338.55 K, x1 = 0.081	746
339.25 K, x1 = 0.156	843
341.55 K, x1 = 0.091	731
344.95 K, x1 = 0.339	913
345.05 K, x1 = 0.264	808
346.15 K, x1 = 0.039	462
348.65 K, x1 = 0.624	875
349.45 K, x1 = 0.122	770
349.75 K, x1 = 0.062	660
351.35 K, x1 = 0.857	878
355.05 K, x1 = 0.339	914
355.15 K, x1 = 0.156	799
358.25 K, x1 = 0.091	656
365.65 K, x1 = 0.122	707
371.75 K, x1 = 0.857	858
375.55 K, x1 = 0.156	745
375.75 K, x1 = 0.264	746
376.65 K, x1 = 0.624	845
387.35 K, x1 = 0.339	891
